Laboratory results from patent US6548544B1, “Method of treatment of priapism without raising systemic blood pressure” (The National University of Singapore, priority 1999, dated 2003).

Assays:
cavernosum = assay: Other prostaglandins tested using the above protocol (contraction of the cavernosum); type: in vivo; conditions: testing using the above protocol "will demonstrate"
[1] = tested on: Pharmacologically Induced Prolonged Erection (Pipe); assay: Effect on papaverine- and phenoxybenzamine-induced prolonged erection (PIPE), penile length, baboons; type: in vivo, baboon; conditions: for increase in penile length: intracavernous papaverine (40 mg) or phenoxybenzamine (3 mg), within 10 min after administration
Description: Six male baboons weighing between 8 kg and 12 kg were used for the experiment. The animals were sedated with ketamine and anaesthetised with intravenous pentobarbitone injected through an indwelling venous catheter. Drugs were injected into the right corpora cavornosa at the mid-third of the shaft using a 29G needle and 1 ml syringe. Blood pressure was monitored through a cannulated femoral artery connected to the transducer. A measuring tape was used to measure penile length visually from a marked point at the base of the penis to the tip of urethral orifice. Changes in penile length were recorded for a period of 100 min after injection.
Intracavernous injection of papaverine (40 mg) or phenoxybenzamine (3 mg) which produced maximal penile length within 20 and 40 min were repeated one week later and prostaglandin A2 was given at the peak time of the turgidity.
In baboons, intracavernous injection of papaverine (40 mg) or phenoxybenzamine (3 mg) produced a 130% increase in penile length within […] after administration (Table 1). This increase in penile length lasted for more than 100 min. This was repeated one week later and when prostaglandin A2 was injected intracavernosally at the maximum rigidity 20 min after the drug administration, the latter produced a marked reduction in penile length and within 40 min of injection, the penile size reduced to the original state of rugosity (Table 1). The fall in systemic blood pressure produced by prostaglandin A2 ranged from 8 to 16 mmHg. Each value reported in Table 1 represents the mean of six experiments.

CCCCC[C@H](O)/C=C/C1=C(CCCCCCC(=O)O)C(=O)CC1 [prostaglandin B1]
contraction of the cavernosum (cavernosum): effective in inducing, promoting, or otherwise facilitating contraction of the cavernosum but are not as active as prostaglandin A2

CCCCC[C@H](O)/C=C/[C@H]1C=CC(=O)[C@@H]1CCCCCCC(=O)O [prostaglandin A1]
contraction of the cavernosum (cavernosum): effective in inducing, promoting, or otherwise facilitating contraction of the cavernosum but are not as active as prostaglandin A2

CC(COc1ccccc1)N(CCCl)Cc1ccccc1 (centres unmarked) [Phenoxybenzamine, phenoxybenzamine]
increase in penile length [1]: 130%
Mean Change in Penile Length (% of Control) ([1]; phenoxybenzamine 3 mg intracavernous alone, 1 min after injection): 10%
Mean Change in Penile Length (% of Control) ([1]; phenoxybenzamine 3 mg intracavernous alone, 2 min after injection): 15%
Mean Change in Penile Length (% of Control) ([1]; phenoxybenzamine 3 mg intracavernous alone, 5 min after injection): 15%
Mean Change in Penile Length (% of Control) ([1]; phenoxybenzamine 3 mg intracavernous alone, 10 min after injection): 48%
Mean Change in Penile Length (% of Control) ([1]; phenoxybenzamine 3 mg intracavernous alone, 20 min after injection): 80%
Mean Change in Penile Length (% of Control) ([1]; phenoxybenzamine 3 mg intracavernous alone, 40 min after injection): 120%
Mean Change in Penile Length (% of Control) ([1]; phenoxybenzamine 3 mg intracavernous alone, 60 min after injection): 120%
Mean Change in Penile Length (% of Control) ([1]; phenoxybenzamine 3 mg intracavernous alone, 80 min after injection): 120%
Mean Change in Penile Length (% of Control) ([1]; phenoxybenzamine 3 mg intracavernous alone, 100 min after injection): 120%

CCCCC[C@H](O)/C=C/C1=C(C/C=C\CCCC(=O)O)C(=O)CC1 [prostaglandin B2]
contraction of the cavernosum (cavernosum): effective in inducing, promoting, or otherwise facilitating contraction of the cavernosum but are not as active as prostaglandin A2

COc1ccc(Cc2nccc3cc(OC)c(OC)cc23)cc1OC [Papaverine, papaverine]
increase in penile length [1]: 130%
Mean Change in Penile Length (% of Control) ([1]; papaverine 40 mg intracavernous alone, 1 min after injection): 30%
Mean Change in Penile Length (% of Control) ([1]; papaverine 40 mg intracavernous alone, 2 min after injection): 40%
Mean Change in Penile Length (% of Control) ([1]; papaverine 40 mg intracavernous alone, 5 min after injection): 52%
Mean Change in Penile Length (% of Control) ([1]; papaverine 40 mg intracavernous alone, 10 min after injection): 130%
Mean Change in Penile Length (% of Control) ([1]; papaverine 40 mg intracavernous alone, 20 min after injection): 130%
Mean Change in Penile Length (% of Control) ([1]; papaverine 40 mg intracavernous alone, 40 min after injection): 130%
Mean Change in Penile Length (% of Control) ([1]; papaverine 40 mg intracavernous alone, 60 min after injection): 130%
Mean Change in Penile Length (% of Control) ([1]; papaverine 40 mg intracavernous alone, 80 min after injection): 130%
Mean Change in Penile Length (% of Control) ([1]; papaverine 40 mg intracavernous alone, 100 min after injection): 130%
